Assay results: US4226877A, “Pyrazoles active in the central nervous system” (Abbott Laboratories, priority 1979, dated 1980)
Where two headings read alike, the source gives them in different places.

Legend:
[1] = system: brain level of homovanillic acid (HVA); experiment: Effect of drug compounds on brain level of homovanillic acid (HVA) in rats; format: in vivo, male Long Evans rats; settings: brains (minus cerebella) removed two or three hours later, control = 1
Description: In testing for the effectiveness of the present drug compounds on the brain level of homovanillic acid (HVA), the drugs were administered intraperitoneally to male Long Evans rats (Simonsen) usually as aqueous solutions but in certain cases as suspensions in 0.5% methocel in 0.9% saline. The standard testing dose was […] body weight. The test and control groups consisted of 3-5 and 5 animals, respectively. The analyses were performed on brains (minus cerebella) removed two or three hours later. In the analyses, standard extraction and fluorimetric methods were used.
Antipsychotic agents increase the synthesis and release of dopamine which is converted to HVA. The HVA level is therefore a measure of dopamine release.

[2] = system: methamphetamine-induced hyperactivity; experiment: Rat methamphetamine antagonism test; format: in vivo, Male, Long-Evans, black hooded rats; settings: for ED50: Rattus norvegicus; for % Change From Placebo Control: methamphetamine 1 mg/kg i.p. one hour later
Description: The second test for identifying potential antipsychotic properties was the rat methamphetamine antagonism test.
[…] Three rats were tested at each dose level. Placebo controls received a volume dose of the 0.5% carboxymethylcellulose vehicle. One hour after drug administration, the animals received methamphetamine at an intraperitoneal dose of 1 mg/kg and were placed in individual test chambers equipped with photocells (Lehigh Valley, Model 1497). Antagonism of methamphetamine-induced hyperactivity was recorded as digital counts received from the photocells at one and two hour intervals.
The drug data were compared to placebo control values to identify statistically significant differences using a one-way analysis of variance computer program. ED50's were calculated by the method of Litchfield and Wilcoxin (J. Pharmacol. Exper. Therap.: 96:99, 1949).

[3] = Dose 0.15 (moles/kg body weight), intraperitoneal
[4] = oral, calculated by the method of Litchfield and Wilcoxin, read-out: ED50

Structure (SMILES) | HVA Level; Compound : Control Ratio ([1]; Dose 0.03, intraperitoneal) | ED50 ([2]; po) [mg/kg] | % Change From Placebo Control ([2]; oral dose 5 mg/kg) | % Change From Placebo Control ([2]; oral dose 10 mg/kg) [%] | % Change From Placebo Control ([2]; oral dose 20 mg/kg) | HVA Level; Compound : Control Ratio [1, 3] | ED50 [2, 4] [mg/kg] | % Change From Placebo Control ([2]; oral dose 80 mg/kg) [%]
CN(C)CCCN1c2ccccc2Sc2ccc(Cl)cc21 [Chlorpromazine, reference compound] | 3.9 | 15 | +10% | -40 | -74% |  |  | 
CCN1CCCC1CNC(=O)c1c(C)nn(C)c1OC (centres unmarked) [I, N-[(1-ethyl-2-pyrrolidinyl)methyl]-5-methoxy-1,3-dimethylpyrazole-4-carboxamide] |  |  | -9% |  | -35% | 4.0 | 44 | -60
CCN1CCCC1CNC(=O)c1c(C)nn(C(C)C)c1OC (centres unmarked) [II, N-[(1-Ethyl-2-pyrrolidinyl)methyl]-1-isopropyl-5-methoxy-3-methylpyrazole-4-carboxamide] |  |  | -16% |  | -13% | 1.8 | > 80 | -16
CCN1CCCC1CNC(=O)c1c(C(C)C)nn(C)c1OC (centres unmarked) [III, N[(1-Ethyl-2-pyrrolidinyl)methyl]-3-isopropyl-5-methoxy-1-methylpyrazole 4-carboxamide] |  |  | -31% |  | -33% | 1.0 | > 80 | -12
CCN1CCCC1CNC(=O)c1c(C)nn(C(C)C)c1O (centres unmarked) [IV] |  |  | +35% |  | +28% | 2.2 | > 80 | -18
CCN1CCCC1CNC(=O)c1cc(S(N)(=O)=O)ccc1OC (centres unmarked) [Sulpiride, reference compound] |  |  | +27% |  | +21% | 3.0 | > 80 | 0
CCN1CCCC1CNC(=O)c1c(C)nn(-c2ccccc2)c1OC (centres unmarked) [V, N-[(1-Ethyl-2-pyrrolidinyl)methyl]-5-methoxy-3-methyl-1-phenyl pyrazole-4-carboxamide] |  |  | -23% |  | -32% | 3.3 | 23.5 | -81
